Assay results: patent US11787850B2, “Peptidic TGF-beta antagonists” (priority 2015, dated 2023)

Test system: TGF-β1-induced PAI-1 protein production in A431 cells
Assay: Western blot for PAI-1 in A431 cells
Assay type: cell-based
Conditions: for inhibition of TGF-β1-induced PAI-1 protein production, peptide treated with DMSO / inhibition of TGF-β1-induced PAI-1 protein production, peptide in Tris left untreated: 100 pM TGF-β1, 18 hours; for inhibition of TGF-β1-induced PAI-1 protein production, peptide treated with DMSO: 0.5% DMSO (FIG. 9); for inhibition of TGF-β1-induced PAI-1 protein production, peptide in Tris left untreated: no DMSO (FIG. 9)
Method: FIG. 7 illustrates that the small molecular weight CD109-based peptide P16 (but not P11 or P16-1) inhibits TGF-β1-induced PAI-protein production. A431 cells were treated without (lane 1) or with 100 pM of TGF-β1 (lanes 2-6) in the absence (lane 2) or presence of 10 nM of P11 (11 aa peptide, lane 3), P16 (16 aa peptide, lane 4), P16-1 (scrambled peptide of 16 aa, lane 5) or Tris buffer (buffer, lane 6) for 24 hrs. Cell lysates were analyzed by Western blot for PAI-1 ([…]) protein levels and normalized to GAPDH protein levels (loading control). In the conditions tested, P16 (but not P11) inhibited TGF-β1-induced PAI-1 expression.
A431 cells were treated for 18 hours without (−) or with (+) 100 pM TGF-β1 in the presence or absence of Peptide X or P16. The peptides were previously dissolved in Tris buffer and left untreated or treated with DMSO prior to addition to the cells. Cell lysates were analyzed by Western blot for PAI-1 (plasminogen activator inhibitor-1) protein expression (top panel) and GAPDH served as a loading control (bottom panel). PAI-1 was not detected in untreated cells (lane 1).
A431 cells were grown in 6-well plates to 70-80% confluency and serum-starved overnight. Cells were washed with PBS and treated with or without TGF-β1 in presence or absence of various CD109-based peptides as indicated in the figure legends. Cells were solubilized with 500 μl of lysis buffer (50 mM Tris, pH 7.5, 150 mM NaCl, 50 mM NaF, 50 mM β-glycerophosphate, 1 mM sodium orthovanadate, 1 mM dithiothreitol, 5 mM EDTA, pH 8.0, 1% Nonidet P-40, 10% glycerol, 10 μM phenylmethylsulfonyl fluoride, 200 μg/ml bovine serum albumin, 1 μg/ml leupeptin, […] soybean trypsin inhibitor, 10 μg/ml benzamide, and 2 μg/ml pepstatin) for 30 min at 4° C. with mild agitation. Cell lysates were collected and centrifuged for 10 min at 10,000×g. The supernatants were collected and protein concentrations were determined using the Bio-Rad protein assay kit. Lysates containing equivalent protein concentrations were mixed with 0.2 volume of 5× electrophoresis sample buffer containing 5% β-mercaptoethanol and boiled for 5 min. Samples were resolved on 7.5% SDS-polyacrylamide gels and transferred to nitrocellulose membranes. Membranes were blocked for 3 h in blocking buffer (30 mM Tris, pH 7.5, 150 mM NaCl, and 0.05% (w/v) Tween 20™ (Tris-buffered saline/Tween) containing 5% (w/v) skim milk powder). The blot was incubated overnight at 4° C. with a 1:1000 dilution of anti-PAI-1 antibody (BD Biosciences). Blots were washed with Tris-buffered saline/Tween and incubated for 45 min at room temperature with a 1:5000 dilution of secondary antibody conjugated to horseradish peroxidase (Pierce). Chemiluminescence detection of the immune complexes was performed using the ECL system (Amersham Biosciences) according to the manufacturer's instructions. The membranes were stripped and reprobed with an anti-GAPDH antibody to confirm equal protein loading.
A431 cells were treated without (lane 1) or with 100 pM of TGF-β1 (lanes 2-6) in the absence (lane 2) or presence of 10 nM of P11 (11 aa peptide, lane 3), P16 (16 aa peptide, lane 4), P16-1 (scrambled peptide of 16 aa, lane 5) or Tris buffer (buffer, lane 6) for 24 hrs. Cell lysates were analyzed by Western blot for PAI-1 ([…]) protein levels and normalized to GAPDH protein levels (loading control).
A431 squamous cell carcinoma cells were treated for 18 hours without (−) or with (+) 100 pM TGF-β1 in the presence or absence of Peptide X or P16. The peptides were dissolved in Tris buffer and left untreated or treated with 0.5% DMSO prior to addition to the cells. Cell lysates were analyzed by Western blot for PAI-1 ([…]) protein expression (top panel) and GAPDH served as a loading control (bottom panel).

Row | Sequence | inhibition of TGF-β1-induced PAI-1 protein production, peptide treated with DMSO | inhibition of TGF-β1-induced PAI-1 protein production, peptide in Tris left untreated | inhibition of TGF-β1-induced PAI-1 protein production (10 nM peptide, 100 pM TGF-β1, 24 hrs (FIG. 7))
1 | LGSSPHVRKHFPETWIWLDTNMGSRIYQEFEVTVPDSITS (Peptide X) | inhibited | did not | –
2 | ETWIWLDTNMGSRIYQ [Peptide P16] | did not enhance | inhibited | inhibited
